Data on two compounds can be found in US20250352512A2, “C4-S[…] DERIVATIVES AND METHODS OF USING” (priority 2022, published 2025).

SMILES strings stand for the structures. A value given as a limit tells only on which side of the number the result lay.

DAT, sequence (Q01959 whole entry): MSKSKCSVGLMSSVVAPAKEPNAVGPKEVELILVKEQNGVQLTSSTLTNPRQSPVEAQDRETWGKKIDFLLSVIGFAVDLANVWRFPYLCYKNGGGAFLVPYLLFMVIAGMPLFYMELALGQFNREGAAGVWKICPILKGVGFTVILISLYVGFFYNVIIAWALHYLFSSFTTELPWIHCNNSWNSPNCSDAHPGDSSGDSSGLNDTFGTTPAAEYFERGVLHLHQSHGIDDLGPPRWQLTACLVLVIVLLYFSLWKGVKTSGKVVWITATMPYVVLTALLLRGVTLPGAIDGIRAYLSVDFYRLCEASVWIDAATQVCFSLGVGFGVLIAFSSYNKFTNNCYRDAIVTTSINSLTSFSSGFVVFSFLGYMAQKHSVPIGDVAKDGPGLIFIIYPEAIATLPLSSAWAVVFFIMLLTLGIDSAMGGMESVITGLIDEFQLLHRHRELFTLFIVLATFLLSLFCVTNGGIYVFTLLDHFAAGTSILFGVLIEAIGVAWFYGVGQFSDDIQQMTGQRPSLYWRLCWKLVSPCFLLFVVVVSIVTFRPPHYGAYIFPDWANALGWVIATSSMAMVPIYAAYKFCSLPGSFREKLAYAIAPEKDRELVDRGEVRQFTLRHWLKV
T9 sequence (P35363 whole entry): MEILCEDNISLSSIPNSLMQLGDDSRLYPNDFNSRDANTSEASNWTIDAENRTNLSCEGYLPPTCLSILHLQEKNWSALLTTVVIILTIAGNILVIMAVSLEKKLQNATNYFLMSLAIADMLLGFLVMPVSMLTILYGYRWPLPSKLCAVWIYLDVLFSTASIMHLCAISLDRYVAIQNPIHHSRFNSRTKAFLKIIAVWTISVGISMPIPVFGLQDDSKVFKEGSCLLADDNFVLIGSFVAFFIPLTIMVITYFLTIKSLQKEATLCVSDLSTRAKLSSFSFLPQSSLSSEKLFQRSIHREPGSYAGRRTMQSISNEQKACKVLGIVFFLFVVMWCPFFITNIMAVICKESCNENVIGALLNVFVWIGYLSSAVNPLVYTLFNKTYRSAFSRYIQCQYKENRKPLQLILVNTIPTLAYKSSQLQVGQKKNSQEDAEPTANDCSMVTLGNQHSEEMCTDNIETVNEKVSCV

One experiment deals with T1, ADRA1A (Homo sapiens, UniProt P35348).
T1 sequence (P35348 1-466): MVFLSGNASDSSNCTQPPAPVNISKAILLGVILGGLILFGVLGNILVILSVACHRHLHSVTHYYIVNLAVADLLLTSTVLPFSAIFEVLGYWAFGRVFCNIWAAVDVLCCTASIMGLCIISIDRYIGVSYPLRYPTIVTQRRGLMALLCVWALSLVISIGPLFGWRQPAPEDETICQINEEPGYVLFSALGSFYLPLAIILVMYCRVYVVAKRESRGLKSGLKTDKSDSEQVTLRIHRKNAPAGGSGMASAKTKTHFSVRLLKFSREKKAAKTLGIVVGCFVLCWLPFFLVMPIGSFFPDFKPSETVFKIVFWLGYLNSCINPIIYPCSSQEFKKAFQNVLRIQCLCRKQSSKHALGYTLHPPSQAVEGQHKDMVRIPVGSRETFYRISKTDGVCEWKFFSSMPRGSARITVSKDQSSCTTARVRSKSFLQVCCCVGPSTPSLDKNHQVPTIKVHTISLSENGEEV
The experiment is described as follows: cell-based. The conditions noted are these: ADRA1A, GPCR, AGN (agonist); read-out: EC50.
Usually EC50 stands for the concentration giving half of the maximal effect. Take `CN(C)Cc1c[nH]c2cccc(O[Si](C)(C)C(C)(C)C)c12` [A(IV)]: the EC50 is above 100 µM.
Regarding `CC(C)[Si](Oc1cccc2[nH]cc(CN(C)C)c12)(C(C)C)C(C)C` [A(V)], the EC50 is above 100 µM.

In the next experiment the target is T2, OPRD1 (Homo sapiens, UniProt P41143). As to the kind of experiment: cell-based. The conditions noted are these: OPRD1, GPCR, ANT (antagonist); read-out: IC50.
T2 sequence (P41143 whole entry): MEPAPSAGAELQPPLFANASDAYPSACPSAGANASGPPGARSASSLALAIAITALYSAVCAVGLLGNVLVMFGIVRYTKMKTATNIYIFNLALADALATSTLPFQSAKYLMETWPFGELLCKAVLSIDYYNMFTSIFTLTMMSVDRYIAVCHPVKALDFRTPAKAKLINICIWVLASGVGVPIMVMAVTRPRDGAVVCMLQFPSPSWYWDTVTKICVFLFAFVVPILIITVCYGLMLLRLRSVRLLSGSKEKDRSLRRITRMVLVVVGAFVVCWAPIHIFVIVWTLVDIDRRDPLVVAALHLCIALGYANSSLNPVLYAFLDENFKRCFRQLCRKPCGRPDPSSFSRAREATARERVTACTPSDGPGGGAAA
A word on the IC50: it is the concentration needed to halve the response being measured. For the compound `CN(C)Cc1c[nH]c2cccc(O[Si](C)(C)C(C)(C)C)c12` [A(IV)], the IC50 was above 100 µM.
The same measure, in the same setting: as for `CC(C)[Si](Oc1cccc2[nH]cc(CN(C)C)c12)(C(C)C)C(C)C` [A(V)], the figure is above 100 µM.

The target of a further experiment is T3, HTR1A (5-HT1A) (Homo sapiens, UniProt P08908).
T3 sequence (P08908 1-422): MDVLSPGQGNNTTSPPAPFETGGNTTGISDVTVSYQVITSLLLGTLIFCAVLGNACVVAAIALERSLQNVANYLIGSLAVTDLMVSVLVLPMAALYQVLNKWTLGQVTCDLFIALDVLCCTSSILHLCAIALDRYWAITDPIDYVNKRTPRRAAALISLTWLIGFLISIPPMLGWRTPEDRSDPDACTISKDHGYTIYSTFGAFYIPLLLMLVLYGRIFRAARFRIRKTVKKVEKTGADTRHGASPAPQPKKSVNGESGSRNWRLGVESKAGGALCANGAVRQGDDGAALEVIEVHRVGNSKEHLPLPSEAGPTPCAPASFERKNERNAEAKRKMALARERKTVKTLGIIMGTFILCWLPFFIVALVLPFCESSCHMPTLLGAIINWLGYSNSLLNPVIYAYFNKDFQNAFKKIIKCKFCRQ
The experiment is described as follows: cell-based. The conditions noted are these: HTR1A, GPCR, AGN (agonist); read-out: EC50.
In the case of `CN(C)Cc1c[nH]c2cccc(O[Si](C)(C)C(C)(C)C)c12` [A(IV)], the EC50 is 4.46 µM.
For `CC(C)[Si](Oc1cccc2[nH]cc(CN(C)C)c12)(C(C)C)C(C)C` [A(V)], the EC50 was found to be 10.7 µM.

The target in the next experiment is T4, HTR2B (5-HT2B) (Homo sapiens, UniProt P41595). The experiment is described as follows: cell-based. The following applies: HTR2B, GPCR, AGN (agonist); read-out: EC50.
T4 sequence (P41595 whole entry): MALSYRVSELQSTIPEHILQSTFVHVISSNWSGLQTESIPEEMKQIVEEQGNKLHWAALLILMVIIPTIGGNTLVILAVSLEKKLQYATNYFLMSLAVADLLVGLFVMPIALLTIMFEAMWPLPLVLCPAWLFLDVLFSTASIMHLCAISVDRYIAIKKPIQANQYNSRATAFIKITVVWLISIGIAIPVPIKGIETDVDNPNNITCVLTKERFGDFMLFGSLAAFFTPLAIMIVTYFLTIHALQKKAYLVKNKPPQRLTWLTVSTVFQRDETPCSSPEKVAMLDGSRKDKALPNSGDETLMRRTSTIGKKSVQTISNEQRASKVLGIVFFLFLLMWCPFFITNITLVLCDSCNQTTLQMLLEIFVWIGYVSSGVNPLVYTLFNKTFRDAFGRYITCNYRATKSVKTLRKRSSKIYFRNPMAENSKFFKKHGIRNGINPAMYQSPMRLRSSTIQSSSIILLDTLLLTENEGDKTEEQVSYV
Turning to `CN(C)Cc1c[nH]c2cccc(O[Si](C)(C)C(C)(C)C)c12` [A(IV)], the EC50 is above 100 µM.
Turning to `CC(C)[Si](Oc1cccc2[nH]cc(CN(C)C)c12)(C(C)C)C(C)C` [A(V)], the half-maximal effective concentration (EC50) was above 100 µM.

For a further experiment, the target named is T5, DRD1 (Homo sapiens, UniProt P21728). As to the kind of experiment: cell-based. The conditions noted are these: DRD1, GPCR, AGN (agonist); read-out: EC50.
T5 sequence (P21728 whole entry): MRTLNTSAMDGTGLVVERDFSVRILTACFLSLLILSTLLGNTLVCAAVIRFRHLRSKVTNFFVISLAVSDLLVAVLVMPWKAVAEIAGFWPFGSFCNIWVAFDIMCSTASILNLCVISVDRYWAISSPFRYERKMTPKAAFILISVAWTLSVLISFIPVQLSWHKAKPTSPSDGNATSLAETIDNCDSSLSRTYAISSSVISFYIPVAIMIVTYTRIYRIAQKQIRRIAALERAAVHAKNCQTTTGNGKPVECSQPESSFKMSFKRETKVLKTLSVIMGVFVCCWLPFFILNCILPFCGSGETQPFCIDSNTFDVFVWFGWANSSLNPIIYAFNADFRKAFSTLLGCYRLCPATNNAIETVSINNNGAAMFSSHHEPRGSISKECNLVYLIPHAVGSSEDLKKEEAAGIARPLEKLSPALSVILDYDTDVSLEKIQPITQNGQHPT
For `CN(C)Cc1c[nH]c2cccc(O[Si](C)(C)C(C)(C)C)c12` [A(IV)], the EC50 is above 100 µM.
With `CC(C)[Si](Oc1cccc2[nH]cc(CN(C)C)c12)(C(C)C)C(C)C` [A(V)], the EC50 is above 100 µM.

The next experiment deals with T6, ADRA2A (Homo sapiens, UniProt P08913).
T6 sequence (P08913 1-465): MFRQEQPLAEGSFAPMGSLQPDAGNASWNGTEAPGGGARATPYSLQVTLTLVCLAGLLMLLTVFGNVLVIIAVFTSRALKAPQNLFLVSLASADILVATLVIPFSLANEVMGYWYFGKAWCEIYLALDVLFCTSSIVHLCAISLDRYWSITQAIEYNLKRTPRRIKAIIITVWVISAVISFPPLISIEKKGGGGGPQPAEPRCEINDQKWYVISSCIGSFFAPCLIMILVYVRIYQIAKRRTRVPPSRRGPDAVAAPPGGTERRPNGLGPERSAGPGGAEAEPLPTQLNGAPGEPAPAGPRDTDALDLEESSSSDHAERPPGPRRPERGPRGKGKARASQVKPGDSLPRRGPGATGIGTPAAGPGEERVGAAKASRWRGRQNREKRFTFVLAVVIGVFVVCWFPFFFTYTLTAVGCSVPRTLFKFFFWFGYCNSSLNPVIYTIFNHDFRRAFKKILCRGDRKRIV
As to the kind of experiment: cell-based. The following applies: ADRA2A, GPCR, AGN (agonist); read-out: EC50.
Regarding `CN(C)Cc1c[nH]c2cccc(O[Si](C)(C)C(C)(C)C)c12` [A(IV)], the EC50 was above 100 µM.
Regarding `CC(C)[Si](Oc1cccc2[nH]cc(CN(C)C)c12)(C(C)C)C(C)C` [A(V)], the 50% effective concentration (EC50) was above 100 µM.

The next experiment has as its target T4, HTR2B (5-HT2B). The experiment is described as follows: cell-based. The following applies: HTR2B, GPCR, ANT (antagonist); read-out: IC50.
As to `CN(C)Cc1c[nH]c2cccc(O[Si](C)(C)C(C)(C)C)c12` [A(IV)], the IC50 stood at 0.814 µM.
On to `CC(C)[Si](Oc1cccc2[nH]cc(CN(C)C)c12)(C(C)C)C(C)C` [A(V)], for which the half-inhibitory concentration (IC50) came to 3.14 µM.

For the next experiment, the target named is NMDAR (Homo sapiens, UniProt Q05586+Q13224). The experiment is described as follows: cell-based. The conditions noted are these: NMDAR, ion channel, OP (opener); read-out: EC50.
NMDAR, sequence (Q13224 27-1484, other chains not shown): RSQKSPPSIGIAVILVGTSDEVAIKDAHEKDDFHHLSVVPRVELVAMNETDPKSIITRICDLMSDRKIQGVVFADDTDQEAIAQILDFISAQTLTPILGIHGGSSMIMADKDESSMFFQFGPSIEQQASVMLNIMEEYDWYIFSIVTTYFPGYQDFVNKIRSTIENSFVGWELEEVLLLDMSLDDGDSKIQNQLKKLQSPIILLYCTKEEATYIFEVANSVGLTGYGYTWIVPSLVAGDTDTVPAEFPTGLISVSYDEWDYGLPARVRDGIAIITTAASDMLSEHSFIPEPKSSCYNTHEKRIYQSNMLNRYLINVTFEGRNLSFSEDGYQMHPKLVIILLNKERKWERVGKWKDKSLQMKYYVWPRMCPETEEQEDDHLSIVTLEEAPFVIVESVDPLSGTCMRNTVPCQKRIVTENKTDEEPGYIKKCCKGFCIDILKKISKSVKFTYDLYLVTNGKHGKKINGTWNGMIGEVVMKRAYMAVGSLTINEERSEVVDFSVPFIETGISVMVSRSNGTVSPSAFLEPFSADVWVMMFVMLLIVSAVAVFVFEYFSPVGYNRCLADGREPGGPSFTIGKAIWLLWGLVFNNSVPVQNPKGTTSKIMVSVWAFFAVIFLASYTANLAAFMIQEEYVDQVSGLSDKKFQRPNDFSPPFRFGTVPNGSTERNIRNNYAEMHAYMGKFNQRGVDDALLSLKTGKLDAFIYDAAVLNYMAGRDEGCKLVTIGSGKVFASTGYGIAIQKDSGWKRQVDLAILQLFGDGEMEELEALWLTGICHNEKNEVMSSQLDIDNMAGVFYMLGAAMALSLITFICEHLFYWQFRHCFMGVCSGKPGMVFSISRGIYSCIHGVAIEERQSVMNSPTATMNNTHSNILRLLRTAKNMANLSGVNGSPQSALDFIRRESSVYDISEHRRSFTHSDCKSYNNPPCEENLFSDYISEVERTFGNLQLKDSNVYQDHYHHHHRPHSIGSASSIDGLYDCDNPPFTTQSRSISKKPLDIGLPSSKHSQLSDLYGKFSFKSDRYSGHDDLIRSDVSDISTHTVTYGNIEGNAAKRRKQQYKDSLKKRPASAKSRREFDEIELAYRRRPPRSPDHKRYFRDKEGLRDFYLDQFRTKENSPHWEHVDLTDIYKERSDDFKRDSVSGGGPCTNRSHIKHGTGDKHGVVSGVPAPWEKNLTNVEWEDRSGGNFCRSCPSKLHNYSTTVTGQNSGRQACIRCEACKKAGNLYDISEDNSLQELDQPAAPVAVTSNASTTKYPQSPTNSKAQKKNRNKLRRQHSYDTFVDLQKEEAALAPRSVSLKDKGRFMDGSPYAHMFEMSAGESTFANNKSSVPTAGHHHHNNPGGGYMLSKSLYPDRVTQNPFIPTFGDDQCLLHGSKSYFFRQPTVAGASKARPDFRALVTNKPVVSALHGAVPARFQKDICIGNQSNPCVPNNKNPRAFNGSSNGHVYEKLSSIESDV
With `CN(C)Cc1c[nH]c2cccc(O[Si](C)(C)C(C)(C)C)c12` [A(IV)], the EC50 is above 100 µM.
Regarding `CC(C)[Si](Oc1cccc2[nH]cc(CN(C)C)c12)(C(C)C)C(C)C` [A(V)], the EC50 was determined as 87.5 µM.

The target in the next experiment is T7, HTR2A (Homo sapiens, UniProt P28223). The experiment is described as follows: cell-based. The following applies: HTR2A, GPCR, ANT (antagonist); read-out: IC50.
T7 sequence (P28223 whole entry): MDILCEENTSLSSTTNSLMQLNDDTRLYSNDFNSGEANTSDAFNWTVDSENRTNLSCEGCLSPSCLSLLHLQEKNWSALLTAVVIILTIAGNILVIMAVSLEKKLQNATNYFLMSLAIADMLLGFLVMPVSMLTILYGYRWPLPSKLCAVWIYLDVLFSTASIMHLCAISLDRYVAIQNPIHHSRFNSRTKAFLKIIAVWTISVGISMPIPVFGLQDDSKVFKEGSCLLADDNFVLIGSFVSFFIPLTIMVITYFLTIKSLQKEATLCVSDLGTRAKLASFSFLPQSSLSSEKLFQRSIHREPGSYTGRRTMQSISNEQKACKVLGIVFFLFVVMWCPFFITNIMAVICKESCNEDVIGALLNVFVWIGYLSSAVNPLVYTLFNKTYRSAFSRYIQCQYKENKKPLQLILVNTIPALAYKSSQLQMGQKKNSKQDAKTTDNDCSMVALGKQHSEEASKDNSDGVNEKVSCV
As to `CN(C)Cc1c[nH]c2cccc(O[Si](C)(C)C(C)(C)C)c12` [A(IV)], the IC50 was found to be 0.851 µM.
For `CC(C)[Si](Oc1cccc2[nH]cc(CN(C)C)c12)(C(C)C)C(C)C` [A(V)], the IC50 is 6.95 µM.

A further experiment concerns the target T5, DRD1. The experiment is described as follows: cell-based. The conditions noted are these: DRD1, GPCR, ANT (antagonist); read-out: IC50.
`CN(C)Cc1c[nH]c2cccc(O[Si](C)(C)C(C)(C)C)c12` [A(IV)]: the IC50 was determined as 10.9 µM.
As for `CC(C)[Si](Oc1cccc2[nH]cc(CN(C)C)c12)(C(C)C)C(C)C` [A(V)], the IC50 stood at 9.67 µM.

A further experiment has as its target T8, 5-HT1A receptor (Homo sapiens, UniProt P08908).
T8 construct: host or cells: CHO-K1
T8 sequence (P08908 1-422): T3 sequence (P08908 1-422)
Experiment: not given
Type of experiment: cell-based. The conditions noted are these: comparison of +5-HT1A with -5-HT1A cultures, 4 mM forskolin.
`CN(C)Cc1c[nH]c2cccc(O[Si](C)(C)C(C)(C)C)c12` [A(IV)]: the 5-HT1A receptor modulation entry was “reveals receptor modulation”.
On to `CC(C)[Si](Oc1cccc2[nH]cc(CN(C)C)c12)(C(C)C)C(C)C` [A(V)], for which the 5-HT1A receptor modulation entry was “reveals receptor modulation”.

The target of a further experiment is T3, HTR1A (5-HT1A). As to the kind of experiment: cell-based. The following applies: HTR1A, GPCR, ANT (antagonist); read-out: IC50.
Take `CN(C)Cc1c[nH]c2cccc(O[Si](C)(C)C(C)(C)C)c12` [A(IV)]: the concentration for half-maximal inhibition (IC50) was above 100 µM.
Turning to `CC(C)[Si](Oc1cccc2[nH]cc(CN(C)C)c12)(C(C)C)C(C)C` [A(V)], the 50% inhibitory concentration (IC50) is above 100 µM.

For another experiment, the target named is DRD2S (Homo sapiens, UniProt P14416). The experiment is described as follows: cell-based. The following applies: DRD2S, GPCR, ANT (antagonist); read-out: IC50.
As to `CN(C)Cc1c[nH]c2cccc(O[Si](C)(C)C(C)(C)C)c12` [A(IV)], the half-maximal inhibitory concentration (IC50) is above 100 µM.
Still for that read-out and setting: as for `CC(C)[Si](Oc1cccc2[nH]cc(CN(C)C)c12)(C(C)C)C(C)C` [A(V)], the figure is above 100 µM.

A further experiment has as its target T9, 5-HT2A receptor (5-HT2AR) (Mus musculus, UniProt P35363).
T9 construct: tissue Charles River; host or cells: living C57BL/6-Elite mice (neuronal receptor)
As to the kind of experiment: Drug-induced Head Twitch Response (HTR) in mice. The conditions noted are these: C57BL/6-Elite mice, i.p. 1 mg/kg, 15-to-30-minute window following administration. Format: in vivo.
Turning to `CN(C)Cc1c[nH]c2cccc(O[Si](C)(C)C(C)(C)C)c12` [A(IV)], the “incidences of Head Twitch Response (HTR) relative to vehicle” value is listed as “Elevated incidences of HTR”.
For the compound `CC(C)[Si](Oc1cccc2[nH]cc(CN(C)C)c12)(C(C)C)C(C)C` [A(V)], the “incidences of Head Twitch Response (HTR) relative to vehicle” value is given as “Elevated incidences of HTR”.

A further experiment has as its target DAT (Homo sapiens, UniProt Q01959). As to the kind of experiment: cell-based. The following applies: DAT, transporter, BL (blocker); read-out: IC50.
Consider `CN(C)Cc1c[nH]c2cccc(O[Si](C)(C)C(C)(C)C)c12` [A(IV)], for which the half-inhibitory concentration (IC50) is 25.4 µM.
Turning to `CC(C)[Si](Oc1cccc2[nH]cc(CN(C)C)c12)(C(C)C)C(C)C` [A(V)], the half-maximal inhibitory concentration (IC50) was above 100 µM.

Another experiment deals with T7, HTR2A. As to the kind of experiment: cell-based. The conditions noted are these: HTR2A, GPCR, AGN (agonist); read-out: EC50.
On to `CN(C)Cc1c[nH]c2cccc(O[Si](C)(C)C(C)(C)C)c12` [A(IV)], for which the EC50 is 34 µM.
With `CC(C)[Si](Oc1cccc2[nH]cc(CN(C)C)c12)(C(C)C)C(C)C` [A(V)], the concentration for a half-maximal effect (EC50) is above 100 µM.

A further experiment has as its target T2, OPRD1. The experiment is described as follows: cell-based. The following applies: OPRD1, GPCR, AGN (agonist); read-out: EC50.
Consider `CN(C)Cc1c[nH]c2cccc(O[Si](C)(C)C(C)(C)C)c12` [A(IV)], for which the concentration for a half-maximal effect (EC50) is 29.1 µM.
Turning to `CC(C)[Si](Oc1cccc2[nH]cc(CN(C)C)c12)(C(C)C)C(C)C` [A(V)], the EC50 was 33.3 µM.

The target of another experiment is HTR1B (5-HTR1B) (Homo sapiens, UniProt P28222). As to the kind of experiment: cell-based. The following applies: HTR1B, GPCR, ANT (antagonist); read-out: IC50.
HTR1B (5-HTR1B), sequence (P28222 whole entry): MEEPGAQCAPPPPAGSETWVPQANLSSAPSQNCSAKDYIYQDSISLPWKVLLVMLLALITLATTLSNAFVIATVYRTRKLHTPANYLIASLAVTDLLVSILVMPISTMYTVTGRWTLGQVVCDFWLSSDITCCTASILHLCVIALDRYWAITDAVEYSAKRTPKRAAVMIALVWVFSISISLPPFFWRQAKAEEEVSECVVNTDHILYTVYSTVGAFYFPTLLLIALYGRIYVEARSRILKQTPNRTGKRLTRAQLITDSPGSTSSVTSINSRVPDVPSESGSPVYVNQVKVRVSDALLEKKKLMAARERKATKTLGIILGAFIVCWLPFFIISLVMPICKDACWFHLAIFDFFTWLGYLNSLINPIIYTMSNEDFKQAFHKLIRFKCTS
As to `CN(C)Cc1c[nH]c2cccc(O[Si](C)(C)C(C)(C)C)c12` [A(IV)], the concentration for half-maximal inhibition (IC50) was above 100 µM.
For the compound `CC(C)[Si](Oc1cccc2[nH]cc(CN(C)C)c12)(C(C)C)C(C)C` [A(V)], the IC50 was above 100 µM.

Another experiment addresses T1, ADRA1A. As to the kind of experiment: cell-based. The following applies: ADRA1A, GPCR, ANT (antagonist); read-out: IC50.
As for `CN(C)Cc1c[nH]c2cccc(O[Si](C)(C)C(C)(C)C)c12` [A(IV)], the IC50 came out at 18.5 µM.
On to `CC(C)[Si](Oc1cccc2[nH]cc(CN(C)C)c12)(C(C)C)C(C)C` [A(V)], for which the concentration for half-maximal inhibition (IC50) turned out to be 19.6 µM.

The next experiment has as its target T6, ADRA2A. As to the kind of experiment: cell-based. The conditions noted are these: ADRA2A, GPCR, ANT (antagonist); read-out: IC50.
Take `CN(C)Cc1c[nH]c2cccc(O[Si](C)(C)C(C)(C)C)c12` [A(IV)]: the IC50 was determined as 16 µM.
On to `CC(C)[Si](Oc1cccc2[nH]cc(CN(C)C)c12)(C(C)C)C(C)C` [A(V)], for which the IC50 is above 100 µM.
